ChEMBL document CHEMBL3507680, “University of Dundee, Gates Library screen for HepG2 cell viability”

Assay: Human HepG2 cell viability assay in 384 well format
Format: toxicity, cell-based
Parameters: dose 125 nL, time 70.5 hour; cytotoxicity at 70.5 h: concentration not given beside the values
Conditions: HepG2 cells, read-out: Inhibition
`CNC(=O)CN([C@H]1C[C@H]2CCOC[C@H]2C1)S(=O)(=O)c1ccccc1` gave a cytotoxicity at 70.5 h of -5.55%. With `O=C(O)CN(C(=O)c1ccccc1)[C@H]1C[C@H]2CCOC[C@H]2C1` the cytotoxicity at 70.5 h was -10.1%. For `OC[C@@H]1CN2CCN(c3ccccn3)C[C@@H]2[C@H]1c1ccccc1`, the cytotoxicity at 70.5 h was -7.31%. With `CN1CC[C@H](N(Cc2ccccc2)Cc2ccccc2)C[C@H](O)C1` the cytotoxicity at 70.5 h was 11.2%. For `CN1C[C@H](O)[C@]2(CCN(Cc3ccc(OC(F)(F)F)cc3)C2)S1(=O)=O`, the cytotoxicity at 70.5 h was -1.23%. With `CN1C[C@H](O)[C@]2(CCN(Cc3ccc(F)c(F)c3)C2)S1(=O)=O` the cytotoxicity at 70.5 h was 13.9%. Molecule `COc1ccc(CN2CC[C@@]3(C2)[C@H](O)CN(C)S3(=O)=O)cc1F` has a cytotoxicity at 70.5 h of 0.857%. Molecule `OC[C@H]1CN2CCN(c3ccccn3)C[C@@H]2[C@@H]1c1ccccc1` has a cytotoxicity at 70.5 h of -5.54%. `O=S1(=O)[C@@H](c2ccccc2)[C@H](CO)CN1C1CC1` showed a cytotoxicity at 70.5 h of -1.65%. Molecule `O=C1c2ncccc2C(CCO)N1Cc1ccccc1` (stereo unspecified) has a cytotoxicity at 70.5 h of -3.47%. `CCCC(O)CN1CCC(=O)N(CCOC)Cc2cc3c(cc21)OCO3` (stereo unspecified) gave a cytotoxicity at 70.5 h of 18.9%. `COc1ccc2c(c1)CN(C)C(=O)CCN2CC(O)C(F)(F)F` (stereo unspecified) showed a cytotoxicity at 70.5 h of 11.9%. `CCCC(O)CN1CCC(=O)N(C)Cc2cc(F)ccc21` (stereo unspecified) gave a cytotoxicity at 70.5 h of 18.5%. `CO[C@H]1C(=O)N(C)C2(CCNCC2)[C@@H]1C(=O)Nc1ccccc1` gave a cytotoxicity at 70.5 h of -10.2%. Work on `CCOC(=O)N1[C@@H](c2ccco2)[C@@H](CO)C[C@]12CCCCNC2=O` yielded a cytotoxicity at 70.5 h of -6.22%. `COc1ccc2c(c1)CN(Cc1ccco1)C(=O)CCN2` showed a cytotoxicity at 70.5 h of -10%. `O=C1CN(C(=O)C2CCCCC2)CC(O)CN1Cc1ccco1` (stereo unspecified) gave a cytotoxicity at 70.5 h of -4.93%. With `CC(C)CN1CC(O)CN(S(=O)(=O)c2ccccc2)CC1=O` (stereo unspecified) the cytotoxicity at 70.5 h was -10.6%. `O=C1CN(S(=O)(=O)c2ccc(F)cc2)CC(O)CN1CC1CC1` (stereo unspecified) showed a cytotoxicity at 70.5 h of -9.49%. With `CCCC1CN(CC(C)C)C(=O)c2cccnc2O1` (stereo unspecified) the cytotoxicity at 70.5 h was 44%. In the case of `CCNC(=O)N1CCC(OC)c2ccccc2N(CC(=O)NC)C(=O)C1` (stereo unspecified), the cytotoxicity at 70.5 h is reported as -2.79%. With `CCOC(=O)C1CC2(CCCC2)N2CCC(=O)N12` (stereo unspecified) the cytotoxicity at 70.5 h was 0.137%. Work on `O=C(c1ccco1)N1C(CN2CCOCC2)[C@]2(O)CC[C@H]1CC2` (stereo partly specified) yielded a cytotoxicity at 70.5 h of -6%. Molecule `COc1ccc(-c2cnc3c(c2)CN(C2CC2)C(=O)CCN3)cc1` has a cytotoxicity at 70.5 h of -4.59%. In the case of `CCOC(=O)[C@@H]1[C@@H](c2ccccc2)CN2CCN(S(C)(=O)=O)C[C@H]12`, the cytotoxicity at 70.5 h is reported as -6.56%. Molecule `CNC(=O)[C@@H]1[C@H]2CNCCN2C[C@H]1c1ccccc1` has a cytotoxicity at 70.5 h of -6.11%. `CO[C@H]1CN(C)S(=O)(=O)[C@@]12CCN(Cc1ccccc1)C2` showed a cytotoxicity at 70.5 h of -3.43%. `CO[C@@H]1CN(c2ccccc2)S(=O)(=O)[C@@]12CCN(CC1CC1)C2` gave a cytotoxicity at 70.5 h of -6.15%. With `CO[C@@H]1CN(c2ccccc2)S(=O)(=O)[C@@]12CCN(C(C)=O)C2` the cytotoxicity at 70.5 h was -10.5%. `CO[C@@H]1CN(c2ccccc2)S(=O)(=O)[C@@]12CCN(C(=O)N(C)C)C2` showed a cytotoxicity at 70.5 h of -5.12%. Molecule `CO[C@@]1(C)C[C@@H](O)C12CCN(C(=O)c1ccccc1C(C)=O)CC2` has a cytotoxicity at 70.5 h of -7.26%. Work on `C=C(C)COc1ccccc1NC(=O)N1CCCCC1CO` (stereo unspecified) yielded a cytotoxicity at 70.5 h of 4.81%. In the case of `COC(=O)[C@H](CSC)Nc1nc(C2CCCC2)nc2c1cnn2C`, the cytotoxicity at 70.5 h is reported as -8.48%. `COC(C)(C)CC(C)NCc1cc(-c2ccco2)on1` (stereo unspecified) gave a cytotoxicity at 70.5 h of -11.4%. Work on `CCC[C@H]1CN(S(=O)(=O)N(C)Cc2ccccc2)C[C@@H]1N` yielded a cytotoxicity at 70.5 h of 1.2%. For `NC(=O)c1ccnc(N2CCCC(CO)(Cc3ccccc3)C2)c1` (stereo unspecified), the cytotoxicity at 70.5 h was -5.88%. Molecule `Nc1nc2c(c(NCC(c3cccnc3)N3CCOCC3)n1)CCCC2` (stereo unspecified) has a cytotoxicity at 70.5 h of -12.1%. `Cc1ocnc1C(=O)N1CCN(C(=O)CC(C)C)[C@@H]2CS(=O)(=O)C[C@@H]21` gave a cytotoxicity at 70.5 h of 31.4%. For `COc1cc(CNc2ccc(C)c(Cl)c2)ccc1OCC(N)=O`, the cytotoxicity at 70.5 h was -11.9%. For `O=C(NCCC1COc2ccccc2O1)c1ccc(-c2cn[nH]c2)nc1` (stereo unspecified), the cytotoxicity at 70.5 h was 4.75%. Work on `O=C1CN(c2cc(-c3ccccc3F)nc3ccnn23)CCCN1` yielded a cytotoxicity at 70.5 h of -14.6%. Molecule `CCCc1nc(CN(CC)C(=O)c2onc3ccccc23)no1` has a cytotoxicity at 70.5 h of 17%. In the case of `CCc1nc(C)c(C(=O)NCC2COc3cc(OC)ccc3C2)o1` (stereo unspecified), the cytotoxicity at 70.5 h is reported as 42.6%. `Cc1ccc([C@H]2CN(C(C)C)C[C@@H]2NS(=O)(=O)N2CCOCC2)o1` gave a cytotoxicity at 70.5 h of -5.29%. With `OC1(CN2CCCC2)COCCN(c2nccs2)C1` (stereo unspecified) the cytotoxicity at 70.5 h was 37.8%. `COc1ccc(CN2C[C@@H](CN(C)C)[C@@H](CO)C2)c(Cl)c1OC` gave a cytotoxicity at 70.5 h of -7.01%. `Cc1nccc(N[C@H]2CN(CC(C)(C)N3CCOCC3)C[C@@H]2C2CC2)n1` gave a cytotoxicity at 70.5 h of 20.2%. `CC(C)c1nc(C2CCCN(C(=O)CCCn3cccn3)C2)no1` (stereo unspecified) gave a cytotoxicity at 70.5 h of -4.14%. In the case of `Fc1ccc(-c2nnc(CN3CCCC3Cn3cccn3)o2)cc1` (stereo unspecified), the cytotoxicity at 70.5 h is reported as -19.8%. With `Clc1ccccc1-c1nnc(CN2CCCC2Cn2cncn2)o1` (stereo unspecified) the cytotoxicity at 70.5 h was -2.55%. For `CCC(O)CN1CCN(C(=O)c2cc3ccccc3n2CC)CC1` (stereo unspecified), the cytotoxicity at 70.5 h was 12.7%. In the case of `CC(C)OCCCNC(=O)CS(=O)(=O)Cc1ccc(C(C)C)cc1`, the cytotoxicity at 70.5 h is reported as -0.615%. With `CC(C)OCCCNC(=O)CS(=O)(=O)Cc1ccc(C(C)(C)C)cc1` the cytotoxicity at 70.5 h was -5.34%. Molecule `CC(C)CS(=O)(=O)CC(=O)NC1CCCCNC1=O` (stereo unspecified) has a cytotoxicity at 70.5 h of -7.58%. In the case of `CCN(CC)S(=O)(=O)N(CC)Cc1ccc2c(c1)OCCO2`, the cytotoxicity at 70.5 h is reported as -10.6%. With `CCC(CC)c1nnc(NC(=O)NC(C)Cn2cccn2)s1` (stereo unspecified) the cytotoxicity at 70.5 h was 12.3%.
